In article PMC10115881, “Disrupting the α-synuclein-ESCRT interaction with a peptide inhibitor mitigates neurodegeneration in preclinical models of Parkinson’s disease” (Nature Communications, 2023):
Several values for one entry are separate records, joined by “and”; a condition that tells them apart may be missing. Equal entries are not always repeated.

How the values were obtained:
[1] = tested on: LC3-HiBiT reporter in HEK293 cells; experiment: Autophagy flux assay (LC3-HiBiT reporter), HEK293 cells; assay type: cell-based, human
Source text: Autophagic flux was quantitatively measured with the Autophagy LC3-HiBiT Reporter Assay System which was purchased from Promega (GA1040) and used according to the manufacturer’s instructions. When autophagy is induced, the cytosolic LC3-I fusion protein is recruited to phagophores where it becomes conjugated to phosphatidylethanolamine to form LC3-II. Upon phagophore membrane elongation and closure to form the mature autophagosome, a significant fraction of tethered LC3 protein becomes captured within the lumen together with various cargo. Subsequently, autophagosomes fuse with lysosomes to form autolysosomes, leading to the ultimate degradation of both cargo and the captured LC3 reporter protein. Thus, changes in the total level of the LC3 reporter protein can be used to monitor changes in autophagic flux. HEK293 cells (ATCC, CRL-1573) stably expressing the LC3-HiBiT reporter were trypsinized from subconfluent culture and seeded in a 10 cm plate at a density of 3.0 × 10^6 per plate. Cells were incubated overnight at 37 °C in 5% CO2. Cells were transfected with FLAG-peptide plasmids in combination with pcDNA or A53T a-syn plasmids. After 24 h, cells were trypsinized and seeded in triplicate in a white flat-bottomed 96-well plate at a density of 20,000 cells per well. Cell medium was replaced the next day with fresh medium containing DMSO, Rapamycin, or Bafilomycin A1 and incubated for 24 h at 37 °C with 5% CO2. 80 µL of Working prewarmed Nano-Glo® HiBiT lytic buffer containing HiBiT substrate and LgBit protein (N3030) were added to each well containing 20 µL of cell medium and left to incubate on a rocker for 10 min. Samples were read using a luminometer with a 480 nm filter with measured RLU being directly proportional to HiBiT-conjugated LC3.

[2] = tested on: A53T a-syn or EV rats; experiment: Cylinder test, forelimb asymmetry; assay type: in vivo, rat; parameters: Forelimb asymmetry in cylinder test: scale not given here; settings: for Forelimb asymmetry in cylinder test: individual rats
Method: Animals were secured in a stereotactic frame under isoflurane/oxygen anesthesia and ketoprofen (5 mg/kg) analgesia. The surgical site was shaved and sterilized with iodine/betadine prior to making a 2 cm incision along the midline. The scalp was exposed and a unilateral injection targeting the SN was performed at coordinates AP −5.2 mm, ML −2 mm and DV −7.5 mm with respect to the bregma as a point of reference. For each animal, a total volume of 2 μl of virus was injected at a rate of 0.5 μl/min using a microinjection pump and 10 μl Hamilton syringe with a 26-gauge needle. For A53T groups, 1 μl (low dose) or 1.34 μl (high dose) of AAV1/2-A53T a-syn (5.1 × 10^12 genomic particles/ml), 0.14 μl of AAV1/2-PDpep1.3-GFP or Scramble1.3-GFP (5.1 × 10^12 genomic particles/ml) and 0.86 μl or 0.52 μl of sterile PBS was injected; for EV groups, 1 μl (low dose) or 1.34 μl (high dose) of AAV1/2-EV (5.1 × 10^12 genomic particles/ml) replaced AAV1/2-A53T. For V1S/SV2 groups, 0.58 μl of AAV1/2-V1S (1.1 × 10^12 genomic particles/ml), 0.58 μl of AAV1/2-SV2 (1.1 × 10^12 genomic particles/ml), 0.14 μl of AAV1/2-PDpep1.3-RFP or Scramble1.3-RFP (5.1 × 10^12 genomic particles/ml) and 0.7 μl of sterile PBS was injected; for the YFP groups, 1.16 μl of AAV1/2-YFP (1.1 × 10^12 genomic particles/ml), 0.14 μl of AAV1/2-PDpep1.3-RFP or Scramble1.3-RFP (5.1 × 10^12 genomic particles/ml) and 0.7 μl of sterile PBS was injected. At the end of virus injection, the needle remained in place for 5 min before gradual removal.
Spontaneous forepaw use was evaluated using the cylinder test 1 day prior to stereotactic AAV injection, at 21 days post-injection, and at 41 days post-injection. Following overnight food restriction, individual rats with right paws marked black were placed into a glass cylinder in front of two mirrors and videos recorded. An observer blinded to treatment conditions later scored the videos by recording whether animals used their left forepaw, right forepaw, or both forepaws to touch the inner glass surface upon rearing. A total of 5 min of video recording was scored and a minimum of 10 total touches was required for data inclusion.

DEEIERQLKALG [PDpep1.3]
Effect on autophagic flux [1]: neither A53T a-syn nor PDpep1.3 altered autophagic flux | Forelimb asymmetry in cylinder test ([2]; A53T, 3 WPI): -28.57 and 24.32 and 52.38 and 33.3333 and 9.524 and -2.857 | Forelimb asymmetry in cylinder test ([2]; A53T, 6 WPI): -12.5 (2×) and 25.93 and 21.43 and 6.98 | Forelimb asymmetry ([2]; A53T, 6 weeks): comparable to controls | Forelimb asymmetry in cylinder test ([2]; A53T, baseline (prior to injection)): -7.41 and 24.14 and 18.18 and 22.22 and -2.4 and -27.78 and 19.4 | Forelimb asymmetry in cylinder test ([2]; EV, 3 WPI): 3.448 and -28.5714 and 80.9524 and -6.849 and 10.3448 and -26.6667 and 19.4444 | Forelimb asymmetry in cylinder test ([2]; EV, 6 WPI): 20 and -14.29 and 37.5 and -3.23 and 75 and -33.33 and 3.03 | Forelimb asymmetry in cylinder test ([2]; EV, baseline (prior to injection)): 21.95 and -4 and 13.16 and -24.75 and 1.82 and 24.14 and 9.8
